Experimental data taken from the supplement of paper PMC10307832.

Assays:
Assay in all cases: relative viability (nuclei count vs DMSO), 5 days (fraction); higher = more cells survive
IMD-0354 + Palbociclib = compound: O=C(Nc1cc(C(F)(F)F)cc(C(F)(F)F)c1)c1cc(Cl)ccc1O [IMD-0354] + CC(=O)c1c(C)c2cnc(Nc3ccc(N4CCNCC4)cn3)nc2n(C2CCCC2)c1=O [Palbociclib] (partner 0.5 µM)
Outline: (§1)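 Lung cancer cell lines, seeded in 1536-well plates, were treated the following day by pin tool with a single drug or with five library-drug doses (not always all listed) in √10 steps on top of a fixed anchor-drug dose. Cells were fixed and nuclei stained in one step after 5 days, and nuclei were counted. Relative viability is the nuclei count for treated wells divided by that for vehicle wells, reported as medians of duplicate plates.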

IMD-0354 + Olaparib = compound: O=C(Nc1cc(C(F)(F)F)cc(C(F)(F)F)c1)c1cc(Cl)ccc1O [IMD-0354] + O=C(c1cc(Cc2n[nH]c(=O)c3ccccc23)ccc1F)N1CCN(C(=O)C2CC2)CC1 [Olaparib] (partner 8 µM)
Outline: as §1

CX-5461 + Palbociclib = compound: Cc1cnc(CNC(=O)c2c(=O)c3ccc(N4CCCN(C)CC4)nc3n3c2sc2ccccc23)cn1 [CX-5461] + CC(=O)c1c(C)c2cnc(Nc3ccc(N4CCNCC4)cn3)nc2n(C2CCCC2)c1=O [Palbociclib] (partner 0.5 µM)
Outline: as §1

IMD-0354 + Pictilisib = compound: O=C(Nc1cc(C(F)(F)F)cc(C(F)(F)F)c1)c1cc(Cl)ccc1O [IMD-0354] + CS(=O)(=O)N1CCN(Cc2cc3nc(-c4cccc5[nH]ncc45)nc(N4CCOCC4)c3s2)CC1 [Pictilisib] (partner 1 µM)
Outline: as §1

| Cell Line | relative viability (IMD-0354 + Palbociclib; first compound 0.04 µM) | relative viability (IMD-0354 + Palbociclib; first compound 0.1265 µM) | relative viability (IMD-0354 + Palbociclib; first compound 0.4 µM) | relative viability (IMD-0354 + Palbociclib; first compound 1.265 µM) | relative viability (IMD-0354 + Palbociclib; first compound 4 µM) | relative viability (IMD-0354 + Olaparib; first compound 0.04 µM) | relative viability (IMD-0354 + Olaparib; first compound 0.1265 µM) | relative viability (IMD-0354 + Olaparib; first compound 0.4 µM) | relative viability (IMD-0354 + Olaparib; first compound 1.265 µM) | relative viability (IMD-0354 + Olaparib; first compound 4 µM) | relative viability (CX-5461 + Palbociclib; first compound 0.01 µM) | relative viability (CX-5461 + Palbociclib; first compound 0.03162 µM) | relative viability (CX-5461 + Palbociclib; first compound 0.1 µM) | relative viability (CX-5461 + Palbociclib; first compound 0.3162 µM) | relative viability (CX-5461 + Palbociclib; first compound 1 µM) | relative viability (IMD-0354 + Pictilisib; first compound 0.04 µM) | relative viability (IMD-0354 + Pictilisib; first compound 0.1265 µM) | relative viability (IMD-0354 + Pictilisib; first compound 0.4 µM) | relative viability (IMD-0354 + Pictilisib; first compound 1.265 µM) | relative viability (IMD-0354 + Pictilisib; first compound 4 µM) |
| --- | --- | --- | --- | --- | --- | --- | --- | --- | --- | --- | --- | --- | --- | --- | --- | --- | --- | --- | --- | --- |
| 201T | 0.35 | 0.387 | 0.294 | 0.375 | 0.28 | 0.872 | 0.833 | 0.532 | 0.849 | 0.291 | 0.35 | 0.344 | 0.363 | 0.355 | 0.35 | 0.785 | 0.661 | 0.584 | 0.59 | 0.41 |
| A549 | – | – | – | – | – | 0.365 | 0.555 | 0.108 | 0.0898 | 0.0605 | – | – | – | – | – | 0.655 | 0.547 | 0.237 | 0.0721 | 0.124 |
| A-427 | 0.516 | 0.525 | 0.441 | 0.157 | 0.158 | 0.847 | 0.809 | 0.494 | 0.128 | 0.15 | 0.526 | 0.533 | 0.491 | 0.329 | 0.425 | 0.749 | 0.683 | 0.674 | 0.164 | 0.116 |
| ABC-1 | 0.638 | 0.778 | 0.69 | – | 0.432 | 1.13 | 0.823 | 0.404 | – | 0.427 | 0.675 | – | 0.879 | 0.367 | 0.918 | 0.753 | 0.643 | 0.447 | 0.25 | 0.263 |
| BEN | 0.432 | 0.428 | 0.359 | 0.411 | 0.318 | 1.07 | 0.975 | 0.782 | 0.437 | 0.394 | 0.497 | 0.441 | 0.433 | 0.5 | 0.437 | 0.639 | 0.57 | 0.369 | 0.294 | 0.211 |
| CAL-12T | 0.633 | 0.423 | 0.325 | 0.189 | 0.164 | 0.728 | 0.705 | 0.492 | 0.181 | 0.203 | 0.49 | 0.511 | 0.448 | 0.347 | 0.121 | 0.373 | 0.548 | 0.315 | 0.189 | 0.178 |
| COR-L23 | 0.303 | 0.278 | 0.185 | 0.122 | 0.12 | 0.298 | 0.32 | 0.286 | 0.104 | 0.127 | 0.27 | 0.269 | 0.233 | 0.234 | 0.125 | 0.636 | 0.646 | 0.371 | 0.131 | 0.211 |
| COR-L 105 | 0.404 | 0.395 | 0.394 | 0.33 | 0.284 | 0.644 | 0.666 | 0.62 | 0.562 | 0.443 | 0.414 | 0.403 | 0.393 | 0.319 | 0.357 | 0.439 | 0.351 | 0.303 | 0.278 | 0.293 |
| Calu-6 | – | – | – | – | – | 0.555 | 0.57 | 0.428 | 0.138 | 0.111 | – | – | – | – | – | 0.988 | 0.87 | 0.379 | 0.121 | 0.0686 |
| ChaGo-K-1 | 0.844 | 0.917 | 0.55 | 0.473 | 0.236 | 0.34 | 0.455 | 0.375 | 0.241 | 0.218 | 0.965 | 0.95 | 0.927 | 0.933 | 0.899 | 1.11 | 1.22 | 0.495 | 0.216 | 0.301 |
| EBC-1 | – | – | – | – | – | 0.616 | 0.661 | 0.503 | 0.183 | 0.171 | – | – | – | – | – | 0.421 | 0.327 | 0.29 | 0.153 | 0.157 |
| EKVX | 0.383 | 0.343 | – | 0.29 | 0.215 | 0.964 | 0.755 | – | 0.634 | 0.204 | 0.399 | 0.396 | 0.406 | – | 0.298 | 0.477 | 0.465 | – | 0.389 | 0.174 |
| EMC-BAC-2 | 0.534 | 0.522 | 0.423 | 0.35 | 0.34 | 0.456 | 0.511 | 0.327 | 0.226 | 0.26 | 0.515 | 0.515 | 0.468 | 0.433 | 0.412 | 0.647 | 0.545 | 0.41 | 0.416 | 0.225 |
| EPLC-272H | 0.267 | 0.343 | 0.349 | 0.356 | 0.131 | 1.16 | 0.495 | 0.599 | 0.106 | 0.38 | 0.309 | 0.322 | 0.324 | – | 0.352 | 0.327 | 0.265 | 0.231 | 0.264 | 0.103 |
| H3255 | 0.33 | 0.331 | 0.306 | 0.275 | 0.274 | 0.49 | 0.541 | 0.435 | 0.37 | 0.318 | 0.282 | 0.353 | 0.299 | 0.305 | 0.302 | 0.469 | 0.421 | 0.342 | 0.34 | 0.251 |
